In experiment [1] the target is T1, 382 unique human kinases (Homo sapiens, UniProt P42345).
T1 construct: purchased Reaction Biology (HotSpot contract assay)
Briefly: biochemical. Type of experiment: biochemical. The following applies: mTOR/FRAP1; compound at 10 uM; duplicate values; read-out: % Enzyme Activity (relative to DMSO controls).

The target of another experiment is DDR1 (Homo sapiens, UniProt Q08345). Briefly: NanoBRET intracellular target engagement. (Bioluminescence resonance energy transfer reports proximity on the nanometre scale.)
The target in experiment [2] is T2, 382 unique human kinases (Homo sapiens, UniProt P07947, T348I).
T2 construct: purchased Reaction Biology (HotSpot contract assay)
T2 sequence (P07947 whole entry T348I): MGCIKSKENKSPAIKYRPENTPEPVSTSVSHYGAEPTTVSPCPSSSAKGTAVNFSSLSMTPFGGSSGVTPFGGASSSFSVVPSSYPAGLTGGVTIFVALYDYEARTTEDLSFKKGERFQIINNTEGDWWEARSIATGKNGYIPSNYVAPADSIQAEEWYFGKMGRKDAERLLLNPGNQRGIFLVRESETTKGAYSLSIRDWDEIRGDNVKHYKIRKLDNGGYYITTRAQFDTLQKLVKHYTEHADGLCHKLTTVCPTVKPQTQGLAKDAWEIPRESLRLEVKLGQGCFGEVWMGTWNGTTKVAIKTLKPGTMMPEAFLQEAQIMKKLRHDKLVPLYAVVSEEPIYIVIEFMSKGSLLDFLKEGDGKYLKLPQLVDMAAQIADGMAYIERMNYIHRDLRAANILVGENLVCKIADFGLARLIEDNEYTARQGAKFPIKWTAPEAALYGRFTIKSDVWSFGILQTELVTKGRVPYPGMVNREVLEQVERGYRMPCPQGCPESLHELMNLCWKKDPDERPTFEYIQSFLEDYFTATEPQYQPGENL
As to the kind of experiment: biochemical. Type of experiment: biochemical. The note with it: YES1 (T348I), compound at 10 uM, duplicate values.

The target in experiment [3] is T3, 382 unique human kinases (Homo sapiens, UniProt P00533, C797S/L858R/T790M).
T3 construct: purchased Reaction Biology (HotSpot contract assay)
Briefly: biochemical. Type of experiment: biochemical. The following applies: EGFR (T790M/C797S/L858R), compound at 10 uM, duplicate values.

In experiment [4] the target is T4, 382 unique human kinases (Homo sapiens, UniProt O14578).
T4 construct: purchased Reaction Biology (HotSpot contract assay)
Briefly: biochemical. Type of experiment: biochemical. The note with it: STK21/CIT, 10 uM.

For experiment [5], the target named is T5, 382 unique human kinases (Homo sapiens, UniProt P10721, D816I).
T5 construct: purchased Reaction Biology (HotSpot contract assay)
As to the kind of experiment: biochemical. Type of experiment: biochemical. The note with it: c-Kit (D816I), 10 uM.

In experiment [6] the target is T6, 382 unique human kinases (Homo sapiens, UniProt P19784).
T6 construct: purchased Reaction Biology (HotSpot contract assay)
T6 sequence (P19784 whole entry): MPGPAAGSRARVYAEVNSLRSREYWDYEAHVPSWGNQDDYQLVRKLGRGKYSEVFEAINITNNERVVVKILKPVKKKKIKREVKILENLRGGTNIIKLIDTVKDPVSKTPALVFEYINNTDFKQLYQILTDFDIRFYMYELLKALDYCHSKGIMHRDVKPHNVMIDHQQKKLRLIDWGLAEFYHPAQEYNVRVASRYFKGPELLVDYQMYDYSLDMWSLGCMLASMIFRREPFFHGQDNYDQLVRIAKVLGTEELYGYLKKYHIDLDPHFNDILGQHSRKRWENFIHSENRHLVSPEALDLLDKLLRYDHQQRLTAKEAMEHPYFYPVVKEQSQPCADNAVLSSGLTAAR
Briefly: biochemical. Type of experiment: biochemical. The note with it: CK2a2, 10 uM.

The target in experiment [7] is T7, 382 unique human kinases (Homo sapiens, UniProt P00519, V299L).
T7 construct: purchased Reaction Biology (HotSpot contract assay)
T7 sequence (P00519 whole entry V299L): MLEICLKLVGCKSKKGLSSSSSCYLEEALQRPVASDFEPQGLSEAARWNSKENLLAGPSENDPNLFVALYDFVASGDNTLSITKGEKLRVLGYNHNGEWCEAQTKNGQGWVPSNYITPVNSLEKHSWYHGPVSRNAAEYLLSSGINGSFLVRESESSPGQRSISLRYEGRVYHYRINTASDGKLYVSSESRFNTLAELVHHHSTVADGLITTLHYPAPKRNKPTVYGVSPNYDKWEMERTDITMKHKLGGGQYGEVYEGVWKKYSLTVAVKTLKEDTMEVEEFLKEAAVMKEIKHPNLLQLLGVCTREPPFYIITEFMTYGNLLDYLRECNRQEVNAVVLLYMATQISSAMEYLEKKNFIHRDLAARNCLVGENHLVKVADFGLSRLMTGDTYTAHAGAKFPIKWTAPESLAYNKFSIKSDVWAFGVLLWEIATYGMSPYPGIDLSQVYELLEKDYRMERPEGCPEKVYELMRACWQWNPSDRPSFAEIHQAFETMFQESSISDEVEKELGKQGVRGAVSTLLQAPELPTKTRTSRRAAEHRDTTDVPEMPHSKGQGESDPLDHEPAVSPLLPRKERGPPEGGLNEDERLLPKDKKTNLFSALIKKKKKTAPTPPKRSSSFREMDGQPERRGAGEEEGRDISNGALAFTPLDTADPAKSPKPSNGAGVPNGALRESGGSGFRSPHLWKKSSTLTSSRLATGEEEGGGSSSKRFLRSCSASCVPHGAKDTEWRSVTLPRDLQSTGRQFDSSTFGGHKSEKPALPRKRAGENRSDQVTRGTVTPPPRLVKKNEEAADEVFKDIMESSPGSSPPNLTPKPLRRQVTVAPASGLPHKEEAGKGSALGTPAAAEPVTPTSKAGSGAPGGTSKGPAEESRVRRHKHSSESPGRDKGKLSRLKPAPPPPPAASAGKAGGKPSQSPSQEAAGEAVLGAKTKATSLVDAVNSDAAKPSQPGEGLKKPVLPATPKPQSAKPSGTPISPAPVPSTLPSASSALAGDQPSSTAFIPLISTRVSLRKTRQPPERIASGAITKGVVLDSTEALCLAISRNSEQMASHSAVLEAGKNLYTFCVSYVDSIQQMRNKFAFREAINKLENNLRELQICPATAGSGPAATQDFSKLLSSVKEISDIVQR
Briefly: biochemical. Type of experiment: biochemical. The note with it: ABL1 (V299L), [ATP] 5 µM, compound 10 uM.

For experiment [8], the target named is T8, 382 unique human kinases (Homo sapiens, UniProt P17948).
T8 construct: purchased Reaction Biology (HotSpot contract assay)
T8 sequence (P17948 27-1338): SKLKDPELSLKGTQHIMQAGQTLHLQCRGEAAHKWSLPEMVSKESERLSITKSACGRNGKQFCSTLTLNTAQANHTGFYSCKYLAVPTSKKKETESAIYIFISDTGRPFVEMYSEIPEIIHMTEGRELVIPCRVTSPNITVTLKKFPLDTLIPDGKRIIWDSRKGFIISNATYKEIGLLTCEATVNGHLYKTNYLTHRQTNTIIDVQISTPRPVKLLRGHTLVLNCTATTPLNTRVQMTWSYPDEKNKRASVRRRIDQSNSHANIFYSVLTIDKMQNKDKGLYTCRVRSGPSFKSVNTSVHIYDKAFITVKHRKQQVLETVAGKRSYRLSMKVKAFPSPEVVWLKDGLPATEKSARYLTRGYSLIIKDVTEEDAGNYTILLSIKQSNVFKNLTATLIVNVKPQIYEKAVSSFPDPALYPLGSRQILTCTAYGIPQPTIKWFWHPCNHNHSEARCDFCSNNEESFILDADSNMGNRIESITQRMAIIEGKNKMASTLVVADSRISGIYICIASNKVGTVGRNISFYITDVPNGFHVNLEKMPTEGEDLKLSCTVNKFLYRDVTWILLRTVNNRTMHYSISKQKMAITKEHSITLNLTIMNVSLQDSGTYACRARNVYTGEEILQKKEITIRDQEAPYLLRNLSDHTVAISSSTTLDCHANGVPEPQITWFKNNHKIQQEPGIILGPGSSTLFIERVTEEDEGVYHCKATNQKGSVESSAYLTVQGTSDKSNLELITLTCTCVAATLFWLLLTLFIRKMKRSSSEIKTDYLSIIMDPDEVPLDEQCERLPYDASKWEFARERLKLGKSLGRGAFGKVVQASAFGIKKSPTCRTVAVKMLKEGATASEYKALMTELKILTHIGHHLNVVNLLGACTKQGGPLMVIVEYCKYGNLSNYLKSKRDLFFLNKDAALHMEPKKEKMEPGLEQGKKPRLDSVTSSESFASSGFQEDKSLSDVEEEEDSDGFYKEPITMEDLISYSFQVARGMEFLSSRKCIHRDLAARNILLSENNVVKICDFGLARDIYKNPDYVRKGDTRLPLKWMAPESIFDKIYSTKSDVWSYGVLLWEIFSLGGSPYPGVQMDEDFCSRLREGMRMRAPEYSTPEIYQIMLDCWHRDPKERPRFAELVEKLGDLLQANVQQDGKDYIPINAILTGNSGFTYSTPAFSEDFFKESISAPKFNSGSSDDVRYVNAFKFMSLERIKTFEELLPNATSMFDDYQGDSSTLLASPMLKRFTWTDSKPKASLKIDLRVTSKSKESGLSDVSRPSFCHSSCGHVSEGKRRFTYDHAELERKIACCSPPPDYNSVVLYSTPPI
Briefly: biochemical. Type of experiment: biochemical. The following applies: FLT1/VEGFR1, [ATP] 2.5 µM, compound 10 uM.

Experiment [9] deals with T9, 382 unique human kinases (Homo sapiens, UniProt P04626, D769Y).
T9 construct: purchased Reaction Biology (HotSpot contract assay)
As to the kind of experiment: biochemical. Type of experiment: biochemical. The note with it: ERBB2 (D769Y), 10 uM.

Experiment [10] concerns the target T10, 382 unique human kinases (Homo sapiens, UniProt P00533, C797A).
T10 construct: purchased Reaction Biology (HotSpot contract assay)
As to the kind of experiment: biochemical. Type of experiment: biochemical. The note with it: EGFR (C797A), 10 uM.

For experiment [11], the target named is T11, 382 unique human kinases (Homo sapiens, UniProt P15056, G469A).
T11 construct: purchased Reaction Biology (HotSpot contract assay)
T11 sequence (P15056 whole entry G469A): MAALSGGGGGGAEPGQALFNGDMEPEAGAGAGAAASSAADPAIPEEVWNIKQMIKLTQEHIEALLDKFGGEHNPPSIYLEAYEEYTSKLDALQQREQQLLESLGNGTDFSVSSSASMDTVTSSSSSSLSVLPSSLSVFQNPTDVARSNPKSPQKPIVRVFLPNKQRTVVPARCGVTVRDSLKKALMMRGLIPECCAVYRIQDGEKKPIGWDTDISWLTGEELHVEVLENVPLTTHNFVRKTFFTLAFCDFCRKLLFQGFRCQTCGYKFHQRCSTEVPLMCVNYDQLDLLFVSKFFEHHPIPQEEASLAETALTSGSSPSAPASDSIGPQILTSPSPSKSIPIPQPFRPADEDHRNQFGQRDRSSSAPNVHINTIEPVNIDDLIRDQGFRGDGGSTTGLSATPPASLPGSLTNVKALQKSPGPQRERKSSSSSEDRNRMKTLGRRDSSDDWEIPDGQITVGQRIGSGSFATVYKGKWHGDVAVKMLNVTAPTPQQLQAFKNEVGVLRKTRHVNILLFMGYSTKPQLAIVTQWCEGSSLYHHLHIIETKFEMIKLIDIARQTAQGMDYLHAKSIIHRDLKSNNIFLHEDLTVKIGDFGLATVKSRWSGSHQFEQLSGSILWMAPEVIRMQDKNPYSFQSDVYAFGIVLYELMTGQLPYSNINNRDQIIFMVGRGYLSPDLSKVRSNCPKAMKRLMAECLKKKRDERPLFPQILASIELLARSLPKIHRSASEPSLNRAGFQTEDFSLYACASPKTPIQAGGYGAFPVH
Briefly: biochemical. Type of experiment: biochemical. The note with it: BRAF (G469A), 10 uM.

In experiment [12] the target is T12, 382 unique human kinases (Homo sapiens, UniProt P15056, V600D).
T12 construct: purchased Reaction Biology (HotSpot contract assay)
T12 sequence (P15056 whole entry V600D): as the sequence (P15056 whole entry G469A) above, with A469G, V600D counted along it
As to the kind of experiment: biochemical. Type of experiment: biochemical. The note with it: BRAF (V600D), 10 uM.

Experiment [13] has as its target T13, 382 unique human kinases (Homo sapiens, UniProt Q9BWU1).
T13 construct: purchased Reaction Biology (HotSpot contract assay)
Briefly: biochemical. The following applies: CDK19/cyclin C, 10 uM. Type of experiment: biochemical.

The target in experiment [14] is T14, 382 unique human kinases (Homo sapiens, UniProt P04626, D769H).
T14 construct: purchased Reaction Biology (HotSpot contract assay)
Briefly: biochemical. The note with it: ERBB2 (D769H), 10 uM. Type of experiment: biochemical.

The target in experiment [15] is T15, 382 unique human kinases (Homo sapiens, UniProt P15056, G464V).
T15 construct: purchased Reaction Biology (HotSpot contract assay)
T15 sequence (P15056 whole entry G464V): as the sequence (P15056 whole entry G469A) above, with G464V, A469G counted along it
Briefly: biochemical. Type of experiment: biochemical. The following applies: BRAF (G464V), 10 uM.

Experiment [16] addresses T16, 382 unique human kinases (Homo sapiens, UniProt P00519, F317L).
T16 construct: purchased Reaction Biology (HotSpot contract assay)
As to the kind of experiment: biochemical. Type of experiment: biochemical. The following applies: ABL1 (F317L), [ATP] 5 µM, compound 10 uM.

The target of experiment [17] is T17, 382 unique human kinases (Homo sapiens, UniProt Q96S53).
T17 construct: purchased Reaction Biology (HotSpot contract assay)
T17 sequence (Q96S53 whole entry): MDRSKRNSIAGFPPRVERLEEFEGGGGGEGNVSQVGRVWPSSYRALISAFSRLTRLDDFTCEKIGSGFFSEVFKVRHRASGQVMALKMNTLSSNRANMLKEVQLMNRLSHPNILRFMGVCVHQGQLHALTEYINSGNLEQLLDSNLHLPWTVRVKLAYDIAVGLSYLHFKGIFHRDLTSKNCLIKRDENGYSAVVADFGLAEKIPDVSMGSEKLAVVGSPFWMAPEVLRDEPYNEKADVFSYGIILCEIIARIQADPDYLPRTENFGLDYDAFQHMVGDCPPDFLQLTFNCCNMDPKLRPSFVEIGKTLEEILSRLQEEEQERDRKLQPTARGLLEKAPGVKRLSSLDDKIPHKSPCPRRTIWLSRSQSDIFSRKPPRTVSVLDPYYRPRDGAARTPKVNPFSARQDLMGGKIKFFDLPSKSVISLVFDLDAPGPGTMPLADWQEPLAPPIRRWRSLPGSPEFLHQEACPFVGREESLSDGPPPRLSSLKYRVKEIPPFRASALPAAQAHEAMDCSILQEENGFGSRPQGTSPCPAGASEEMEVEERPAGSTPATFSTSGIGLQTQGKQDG
Briefly: biochemical. Type of experiment: biochemical. The following applies: TESK2, 10 uM.

Where [18] appears, read: read-out: % Enzyme Activity (relative to DMSO controls).

pEC50: −log10 of the molar value.

T16 sequence (P00519 whole entry F317L): as the sequence (P00519 whole entry V299L) above, with L299V, F317L counted along it

For `CC(C)c1cc(-c2n[nH]c(=O)n2-c2ccc3c(ccn3C)c2)c(O)cc1O` [Ganetespib (STA9090)], the remaining activity at 10 µM on 382 unique human kinases [1] turned out to be 107%.

As usually defined, the pEC50 is the EC50 on a negative log10 scale, so that one unit is a factor of ten. High values mean a small EC50, low ones a large EC50. With `CC(C)c1cc(-c2n[nH]c(=O)n2-c2ccc3c(ccn3C)c2)c(O)cc1O` [Ganetespib], the pEC50 on DDR1 is 4.12. Besides, on DDR1 (HEK293, read-out: %Normalized Bret Response, DDR1 NanoBRET, HEK293, Drug Conc. 0.0001 M), the remaining activity at 100 µM was determined as 37.5%.

Consider `CCNC(=O)c1noc(-c2cc(C(C)C)c(O)cc2O)c1-c1ccc(CN2CCOCC2)cc1` [Luminespib (AUY-922)], for which the “% Enzyme Activity (relative to DMSO controls)” value at 382 unique human kinases [2] was found to be 101.23%; at 382 unique human kinases [3], 100.18%; on 382 unique human kinases [4] it was 76.27%; on 382 unique human kinases [5] it was 72.16%. The remaining activity at 10 µM was 103% at 382 unique human kinases [2] (setting [18]), 100% on 382 unique human kinases [3] (setting [18]), 78.4% on 382 unique human kinases [4] (setting [18]) and 73.3% at 382 unique human kinases [5] (setting [18]).

For the compound `CCNC(=O)c1noc(-c2cc(C(C)C)c(O)cc2O)c1-c1ccc(CN2CCOCC2)cc1` [Luminespib], the “% Enzyme Activity (relative to DMSO controls)” value on 382 unique human kinases [6] is 108.66%; on 382 unique human kinases [7] it was 31.43%; at 382 unique human kinases [8], 90.88%; at 382 unique human kinases [9], 99.76%; on 382 unique human kinases [10], 99.37%; at 382 unique human kinases [11] it was 98.83%. Besides, the “% Enzyme Activity (relative to DMSO controls)” value on 382 unique human kinases [12] worked out at 98.35%; on 382 unique human kinases [13] it was 95.24%; at 382 unique human kinases [14], 99.65%; on 382 unique human kinases [15], 97.60%; on 382 unique human kinases [16], 5.92%; at 382 unique human kinases [17], 98.62%. Besides, the remaining activity at 10 µM on 382 unique human kinases [6] (setting [18]) is 111%; at 382 unique human kinases [7] (setting [18]) it was 31.8%; at 382 unique human kinases [8] (setting [18]), 91.3%; at 382 unique human kinases [9] (setting [18]), 100%; at 382 unique human kinases [10] (setting [18]), 102%; on 382 unique human kinases [11] (setting [18]) it was 99.7%. Besides, the remaining activity at 10 µM at 382 unique human kinases [12] (setting [18]) amounted to 100%; at 382 unique human kinases [13] (setting [18]), 96.2%; at 382 unique human kinases [14] (setting [18]) it was 102%; at 382 unique human kinases [15] (setting [18]), 97.9%; on 382 unique human kinases [16] (setting [18]), 6.23%; at 382 unique human kinases [17] (setting [18]), 100%.

These data come from publication PMC8550792, “Evolution of kinase polypharmacology across HSP90 drug discovery” (Cell Chemical Biology, 2021).
